Reference: article PMC5928494 (ACS Omega, 2018)
Like-named read-outs stand apart in the source and are kept apart here.

Assays:
in vitro = details: human
[1] = system: ID-8 (murine ovarian cancer) cell line; test: cells; details: Mus musculus, 72 h, read-out: Cytotoxicity IC50, ID-8
[2] = system: MX-1 (human breast cancer) cell line; test: cells; details: 72 h, read-out: Cytotoxicity IC50, MX-1
[3] = system: ID-8 (murine ovarian cancer) cell line
[4] = system: MX-1 (human breast cancer) cell line
[5] = system: WI-38 (human lung fibroblast, normal) cell line

| Molecule | IC50 (in vitro) [nM] | IC50 [1] [nM] | IC50 [2] [nM] | IC50 [3] [nM] | IC50 [4] [nM] | IC50 [5] [nM] |
| --- | --- | --- | --- | --- | --- | --- |
| CC(=O)O[C@H]1C(=O)[C@@]2(C)[C@H]([C@H](OC(=O)c3ccccc3)[C@]3(O)C[C@H](OC(=O)[C@H](O)[C@@H](NC(=O)c4ccccc4)c4ccccc4)C(C)=C1C3(C)C)[C@]1(OC(C)=O)CO[C@@H]1C[C@@H]2O [paclitaxel] | 175 ± 51.6 | 21.2 ± 4.3 | 3.83 ± 0.59 |  |  |  |
| SB-T-1214 [compound 4, reference compound] |  |  |  | 1.89 ± 0.3 | 2.9 ± 0.47 | 4.14 ± 0.82 |
